Experimental data as given in ChEMBL document CHEMBL1149965, “Synthesis and biological evaluation of conformationally constrained bicyclic and tricyclic balanol analogues as inhibitors of protein kinase C” (Bioorg Med Chem Lett, 1995).

Each compound was assayed against T1, Protein kinase C beta type (Homo sapiens, UniProt P05771) (assay: Inhibition of Protein kinase C beta 1).
T1 sequence (P05771 whole entry): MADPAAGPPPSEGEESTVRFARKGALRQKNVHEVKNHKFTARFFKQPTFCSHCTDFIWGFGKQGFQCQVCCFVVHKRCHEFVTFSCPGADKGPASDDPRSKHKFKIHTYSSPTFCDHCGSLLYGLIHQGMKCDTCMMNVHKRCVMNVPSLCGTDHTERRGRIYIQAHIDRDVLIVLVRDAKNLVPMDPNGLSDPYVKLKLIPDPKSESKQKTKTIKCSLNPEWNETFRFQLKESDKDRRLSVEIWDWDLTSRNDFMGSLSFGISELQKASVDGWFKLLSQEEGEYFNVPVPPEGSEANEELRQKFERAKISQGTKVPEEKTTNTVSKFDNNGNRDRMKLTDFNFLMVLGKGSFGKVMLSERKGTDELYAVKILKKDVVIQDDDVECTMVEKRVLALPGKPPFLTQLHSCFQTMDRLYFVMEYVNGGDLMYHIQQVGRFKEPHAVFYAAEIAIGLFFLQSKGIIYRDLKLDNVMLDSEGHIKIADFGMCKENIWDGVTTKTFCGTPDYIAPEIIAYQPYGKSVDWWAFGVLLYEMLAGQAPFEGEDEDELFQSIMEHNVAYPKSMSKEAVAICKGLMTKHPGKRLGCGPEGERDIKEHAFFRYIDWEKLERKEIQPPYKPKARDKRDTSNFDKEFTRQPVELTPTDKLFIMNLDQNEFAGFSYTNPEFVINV

Row | Structure (SMILES) | IC50 [µM]
1 | O=C(N[C@@H]1CNCCCC1OC(=O)c1cc(O)c(C(=O)c2c(O)cccc2C(=O)O)c(O)c1)c1ccc(O)cc1 (mixture of isomers) | 0.032
2 | O=C(NC1CN2CCC(CC2)C1OC(=O)c1cc(O)c(C(=O)c2c(O)cccc2C(=O)O)c(O)c1)c1ccc(O)cc1 (stereo in doubt; anti) | 0.026
3 | O=C(NC1C2CC(C3CCCC32)C1OC(=O)c1cc(O)c(C(=O)c2c(O)cccc2C(=O)O)c(O)c1)c1ccc(O)cc1 (stereo in doubt; syn) | 3.3
4 | CN1C2CCC1C(NC(=O)c1ccc(O)cc1)C(OC(=O)c1cc(O)c(C(=O)c3c(O)cccc3C(=O)O)c(O)c1)C2 (stereo in doubt; anti) | 4.4
5 | CN1C2CCC1C(NC(=O)c1ccc(O)cc1)C(OC(=O)c1cc(O)c(C(=O)c3c(O)cccc3C(=O)O)c(O)c1)C2 (stereo in doubt; syn) | 22
6 | O=C(NC1CN2CCC(CC2)C1OC(=O)c1cc(O)c(C(=O)c2c(O)cccc2C(=O)O)c(O)c1)c1ccc(O)cc1 (stereo in doubt; syn) | 6.3

The compounds below were run against Protein kinase C alpha type (Homo sapiens, UniProt P17252) (assay: Inhibition of Protein kinase C alpha).

Row | Structure (SMILES) | IC50 [µM]
7 | O=C(N[C@@H]1CNCCCC1OC(=O)c1cc(O)c(C(=O)c2c(O)cccc2C(=O)O)c(O)c1)c1ccc(O)cc1 (mixture of isomers) | 0.074
8 | O=C(NC1CN2CCC(CC2)C1OC(=O)c1cc(O)c(C(=O)c2c(O)cccc2C(=O)O)c(O)c1)c1ccc(O)cc1 (stereo in doubt; anti) | 0.415
9 | O=C(NC1C2CC(C3CCCC32)C1OC(=O)c1cc(O)c(C(=O)c2c(O)cccc2C(=O)O)c(O)c1)c1ccc(O)cc1 (stereo in doubt; syn) | 2.7
10 | CN1C2CCC1C(NC(=O)c1ccc(O)cc1)C(OC(=O)c1cc(O)c(C(=O)c3c(O)cccc3C(=O)O)c(O)c1)C2 (stereo in doubt; anti) | 34
11 | CN1C2CCC1C(NC(=O)c1ccc(O)cc1)C(OC(=O)c1cc(O)c(C(=O)c3c(O)cccc3C(=O)O)c(O)c1)C2 (stereo in doubt; syn) | 35
12 | O=C(NC1CN2CCC(CC2)C1OC(=O)c1cc(O)c(C(=O)c2c(O)cccc2C(=O)O)c(O)c1)c1ccc(O)cc1 (stereo in doubt; syn) | 12

What follows are compounds tested against Protein kinase C delta type (Homo sapiens, UniProt Q05655) (assay: Inhibition of Protein kinase C delta).
Sequence of Protein kinase C delta type (Q05655 whole entry): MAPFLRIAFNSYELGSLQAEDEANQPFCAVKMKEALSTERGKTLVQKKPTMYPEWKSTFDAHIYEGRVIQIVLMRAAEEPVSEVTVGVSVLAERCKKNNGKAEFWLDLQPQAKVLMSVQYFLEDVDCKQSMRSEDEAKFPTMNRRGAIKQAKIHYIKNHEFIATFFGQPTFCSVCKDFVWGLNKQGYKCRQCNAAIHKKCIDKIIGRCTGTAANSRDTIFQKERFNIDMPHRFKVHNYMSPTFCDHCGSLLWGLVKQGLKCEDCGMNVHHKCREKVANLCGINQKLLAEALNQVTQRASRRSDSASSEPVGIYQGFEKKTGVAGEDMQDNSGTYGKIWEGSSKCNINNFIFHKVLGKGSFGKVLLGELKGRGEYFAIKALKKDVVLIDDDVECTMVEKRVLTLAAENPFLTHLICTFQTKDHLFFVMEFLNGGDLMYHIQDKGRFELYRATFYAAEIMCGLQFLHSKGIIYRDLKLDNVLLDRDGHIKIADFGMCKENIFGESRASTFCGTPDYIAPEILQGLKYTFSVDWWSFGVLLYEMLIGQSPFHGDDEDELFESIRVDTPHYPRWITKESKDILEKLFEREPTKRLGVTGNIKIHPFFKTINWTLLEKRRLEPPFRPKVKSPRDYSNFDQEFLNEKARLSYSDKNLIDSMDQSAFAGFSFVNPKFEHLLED

Row | Structure (SMILES) | IC50 [µM]
13 | O=C(N[C@@H]1CNCCCC1OC(=O)c1cc(O)c(C(=O)c2c(O)cccc2C(=O)O)c(O)c1)c1ccc(O)cc1 (mixture of isomers) | 0.032
14 | O=C(NC1CN2CCC(CC2)C1OC(=O)c1cc(O)c(C(=O)c2c(O)cccc2C(=O)O)c(O)c1)c1ccc(O)cc1 (stereo in doubt; anti) | 0.112
15 | O=C(NC1C2CC(C3CCCC32)C1OC(=O)c1cc(O)c(C(=O)c2c(O)cccc2C(=O)O)c(O)c1)c1ccc(O)cc1 (stereo in doubt; syn) | 2
16 | CN1C2CCC1C(NC(=O)c1ccc(O)cc1)C(OC(=O)c1cc(O)c(C(=O)c3c(O)cccc3C(=O)O)c(O)c1)C2 (stereo in doubt; anti) | 5
17 | CN1C2CCC1C(NC(=O)c1ccc(O)cc1)C(OC(=O)c1cc(O)c(C(=O)c3c(O)cccc3C(=O)O)c(O)c1)C2 (stereo in doubt; syn) | 3.8
18 | O=C(NC1CN2CCC(CC2)C1OC(=O)c1cc(O)c(C(=O)c2c(O)cccc2C(=O)O)c(O)c1)c1ccc(O)cc1 (stereo in doubt; syn) | 1

Each compound was assayed against T2, Protein kinase C epsilon type (Homo sapiens, UniProt Q02156) (assay: Inhibition of Protein kinase C epsilon).
T2 sequence (Q02156 whole entry): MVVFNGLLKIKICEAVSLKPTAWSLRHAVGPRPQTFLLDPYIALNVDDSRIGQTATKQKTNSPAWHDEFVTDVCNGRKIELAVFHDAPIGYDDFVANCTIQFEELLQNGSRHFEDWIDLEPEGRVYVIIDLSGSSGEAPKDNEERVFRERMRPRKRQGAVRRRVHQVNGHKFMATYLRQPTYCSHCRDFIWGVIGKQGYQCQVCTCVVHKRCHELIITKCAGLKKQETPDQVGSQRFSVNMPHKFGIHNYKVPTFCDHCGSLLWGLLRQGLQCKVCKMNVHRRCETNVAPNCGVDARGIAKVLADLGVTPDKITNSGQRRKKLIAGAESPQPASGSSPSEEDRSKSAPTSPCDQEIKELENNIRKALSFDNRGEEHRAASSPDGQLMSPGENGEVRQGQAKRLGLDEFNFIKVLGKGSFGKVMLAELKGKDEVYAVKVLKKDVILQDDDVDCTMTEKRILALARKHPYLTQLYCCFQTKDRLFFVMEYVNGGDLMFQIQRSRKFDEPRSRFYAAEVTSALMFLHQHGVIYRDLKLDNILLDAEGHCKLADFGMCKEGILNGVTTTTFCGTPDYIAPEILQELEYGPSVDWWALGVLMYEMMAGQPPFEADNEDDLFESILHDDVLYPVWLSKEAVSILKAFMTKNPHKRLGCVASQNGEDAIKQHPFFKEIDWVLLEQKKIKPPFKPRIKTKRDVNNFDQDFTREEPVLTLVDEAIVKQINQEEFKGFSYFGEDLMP

Row | Structure (SMILES) | IC50 [µM]
19 | O=C(NC1CN2CCC(CC2)C1OC(=O)c1cc(O)c(C(=O)c2c(O)cccc2C(=O)O)c(O)c1)c1ccc(O)cc1 (stereo in doubt; anti) | 0.17
20 | O=C(NC1C2CC(C3CCCC32)C1OC(=O)c1cc(O)c(C(=O)c2c(O)cccc2C(=O)O)c(O)c1)c1ccc(O)cc1 (stereo in doubt; syn) | 40
21 | CN1C2CCC1C(NC(=O)c1ccc(O)cc1)C(OC(=O)c1cc(O)c(C(=O)c3c(O)cccc3C(=O)O)c(O)c1)C2 (stereo in doubt; anti) | 27
22 | CN1C2CCC1C(NC(=O)c1ccc(O)cc1)C(OC(=O)c1cc(O)c(C(=O)c3c(O)cccc3C(=O)O)c(O)c1)C2 (stereo in doubt; syn) | 49
23 | O=C(NC1CN2CCC(CC2)C1OC(=O)c1cc(O)c(C(=O)c2c(O)cccc2C(=O)O)c(O)c1)c1ccc(O)cc1 (stereo in doubt; syn) | 14

What follows are compounds tested against cAMP-dependent protein kinase (PKA) (Homo sapiens, UniProt P22694+P17612+P22612) (assay: Inhibition of Protein Kinase A).
Type: protein assay

Row | Structure (SMILES) | IC50 [µM]
24 | O=C(NC1CN2CCC(CC2)C1OC(=O)c1cc(O)c(C(=O)c2c(O)cccc2C(=O)O)c(O)c1)c1ccc(O)cc1 (stereo in doubt; anti) | 2
25 | O=C(NC1C2CC(C3CCCC32)C1OC(=O)c1cc(O)c(C(=O)c2c(O)cccc2C(=O)O)c(O)c1)c1ccc(O)cc1 (stereo in doubt; syn) | > 50
26 | CN1C2CCC1C(NC(=O)c1ccc(O)cc1)C(OC(=O)c1cc(O)c(C(=O)c3c(O)cccc3C(=O)O)c(O)c1)C2 (stereo in doubt; anti) | > 50
27 | CN1C2CCC1C(NC(=O)c1ccc(O)cc1)C(OC(=O)c1cc(O)c(C(=O)c3c(O)cccc3C(=O)O)c(O)c1)C2 (stereo in doubt; syn) | > 50
28 | O=C(NC1CN2CCC(CC2)C1OC(=O)c1cc(O)c(C(=O)c2c(O)cccc2C(=O)O)c(O)c1)c1ccc(O)cc1 (stereo in doubt; syn) | > 50

The compounds below were run against Protein kinase C eta type (Homo sapiens, UniProt P24723) (assay: Inhibition of Protein kinase C eta).
Sequence of Protein kinase C eta type (P24723 whole entry): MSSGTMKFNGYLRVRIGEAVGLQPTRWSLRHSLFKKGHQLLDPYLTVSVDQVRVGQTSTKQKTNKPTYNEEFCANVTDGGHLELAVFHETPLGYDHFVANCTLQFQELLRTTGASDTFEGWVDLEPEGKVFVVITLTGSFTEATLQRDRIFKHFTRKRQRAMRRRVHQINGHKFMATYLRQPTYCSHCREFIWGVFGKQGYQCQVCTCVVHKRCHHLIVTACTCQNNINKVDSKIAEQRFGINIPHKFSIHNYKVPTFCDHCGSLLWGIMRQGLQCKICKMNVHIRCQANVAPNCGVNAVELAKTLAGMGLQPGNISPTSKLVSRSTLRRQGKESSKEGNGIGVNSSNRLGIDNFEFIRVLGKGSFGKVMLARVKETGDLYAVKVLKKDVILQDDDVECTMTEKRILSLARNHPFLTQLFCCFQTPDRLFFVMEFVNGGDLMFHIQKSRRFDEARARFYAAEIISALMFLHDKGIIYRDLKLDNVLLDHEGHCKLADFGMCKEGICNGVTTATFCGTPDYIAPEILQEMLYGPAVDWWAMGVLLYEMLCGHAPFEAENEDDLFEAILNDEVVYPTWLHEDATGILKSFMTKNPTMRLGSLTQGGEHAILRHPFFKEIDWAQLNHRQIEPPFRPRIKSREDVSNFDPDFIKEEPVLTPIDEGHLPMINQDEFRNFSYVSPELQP

Row | Structure (SMILES) | IC50 [µM]
29 | O=C(N[C@@H]1CNCCCC1OC(=O)c1cc(O)c(C(=O)c2c(O)cccc2C(=O)O)c(O)c1)c1ccc(O)cc1 (mixture of isomers) | 0.022
30 | O=C(NC1CN2CCC(CC2)C1OC(=O)c1cc(O)c(C(=O)c2c(O)cccc2C(=O)O)c(O)c1)c1ccc(O)cc1 (stereo in doubt; anti) | 0.026
31 | O=C(NC1C2CC(C3CCCC32)C1OC(=O)c1cc(O)c(C(=O)c2c(O)cccc2C(=O)O)c(O)c1)c1ccc(O)cc1 (stereo in doubt; syn) | 1.9
32 | CN1C2CCC1C(NC(=O)c1ccc(O)cc1)C(OC(=O)c1cc(O)c(C(=O)c3c(O)cccc3C(=O)O)c(O)c1)C2 (stereo in doubt; anti) | 2.8
33 | CN1C2CCC1C(NC(=O)c1ccc(O)cc1)C(OC(=O)c1cc(O)c(C(=O)c3c(O)cccc3C(=O)O)c(O)c1)C2 (stereo in doubt; syn) | 2.5
34 | O=C(NC1CN2CCC(CC2)C1OC(=O)c1cc(O)c(C(=O)c2c(O)cccc2C(=O)O)c(O)c1)c1ccc(O)cc1 (stereo in doubt; syn) | 0.49

The compounds below were run against Protein kinase C gamma type (Homo sapiens, UniProt P05129) (assay: Inhibition Protein kinase C gamma).

Row | Structure (SMILES) | IC50 [µM]
35 | O=C(N[C@@H]1CNCCCC1OC(=O)c1cc(O)c(C(=O)c2c(O)cccc2C(=O)O)c(O)c1)c1ccc(O)cc1 (mixture of isomers) | 0.034
36 | O=C(NC1CN2CCC(CC2)C1OC(=O)c1cc(O)c(C(=O)c2c(O)cccc2C(=O)O)c(O)c1)c1ccc(O)cc1 (stereo in doubt; anti) | 0.17
37 | O=C(NC1C2CC(C3CCCC32)C1OC(=O)c1cc(O)c(C(=O)c2c(O)cccc2C(=O)O)c(O)c1)c1ccc(O)cc1 (stereo in doubt; syn) | 1.6
38 | CN1C2CCC1C(NC(=O)c1ccc(O)cc1)C(OC(=O)c1cc(O)c(C(=O)c3c(O)cccc3C(=O)O)c(O)c1)C2 (stereo in doubt; anti) | 4.6
39 | CN1C2CCC1C(NC(=O)c1ccc(O)cc1)C(OC(=O)c1cc(O)c(C(=O)c3c(O)cccc3C(=O)O)c(O)c1)C2 (stereo in doubt; syn) | 16
40 | O=C(NC1CN2CCC(CC2)C1OC(=O)c1cc(O)c(C(=O)c2c(O)cccc2C(=O)O)c(O)c1)c1ccc(O)cc1 (stereo in doubt; syn) | 4.6

What follows are compounds tested against T1, Protein kinase C beta type (assay: Inhibition of Protein kinase C beta 2).

Row | Structure (SMILES) | IC50 [µM]
41 | O=C(N[C@@H]1CNCCCC1OC(=O)c1cc(O)c(C(=O)c2c(O)cccc2C(=O)O)c(O)c1)c1ccc(O)cc1 (mixture of isomers) | 0.044
42 | O=C(NC1CN2CCC(CC2)C1OC(=O)c1cc(O)c(C(=O)c2c(O)cccc2C(=O)O)c(O)c1)c1ccc(O)cc1 (stereo in doubt; anti) | 0.069
43 | O=C(NC1C2CC(C3CCCC32)C1OC(=O)c1cc(O)c(C(=O)c2c(O)cccc2C(=O)O)c(O)c1)c1ccc(O)cc1 (stereo in doubt; syn) | 2.1
44 | CN1C2CCC1C(NC(=O)c1ccc(O)cc1)C(OC(=O)c1cc(O)c(C(=O)c3c(O)cccc3C(=O)O)c(O)c1)C2 (stereo in doubt; anti) | 14
45 | CN1C2CCC1C(NC(=O)c1ccc(O)cc1)C(OC(=O)c1cc(O)c(C(=O)c3c(O)cccc3C(=O)O)c(O)c1)C2 (stereo in doubt; syn) | 22
46 | O=C(NC1CN2CCC(CC2)C1OC(=O)c1cc(O)c(C(=O)c2c(O)cccc2C(=O)O)c(O)c1)c1ccc(O)cc1 (stereo in doubt; syn) | 34

These compounds were tested against T3, Protein kinase C zeta type (Homo sapiens, UniProt Q05513) (assay: Inhibition of Protein kinase C zeta).
T3 sequence (Q05513 whole entry): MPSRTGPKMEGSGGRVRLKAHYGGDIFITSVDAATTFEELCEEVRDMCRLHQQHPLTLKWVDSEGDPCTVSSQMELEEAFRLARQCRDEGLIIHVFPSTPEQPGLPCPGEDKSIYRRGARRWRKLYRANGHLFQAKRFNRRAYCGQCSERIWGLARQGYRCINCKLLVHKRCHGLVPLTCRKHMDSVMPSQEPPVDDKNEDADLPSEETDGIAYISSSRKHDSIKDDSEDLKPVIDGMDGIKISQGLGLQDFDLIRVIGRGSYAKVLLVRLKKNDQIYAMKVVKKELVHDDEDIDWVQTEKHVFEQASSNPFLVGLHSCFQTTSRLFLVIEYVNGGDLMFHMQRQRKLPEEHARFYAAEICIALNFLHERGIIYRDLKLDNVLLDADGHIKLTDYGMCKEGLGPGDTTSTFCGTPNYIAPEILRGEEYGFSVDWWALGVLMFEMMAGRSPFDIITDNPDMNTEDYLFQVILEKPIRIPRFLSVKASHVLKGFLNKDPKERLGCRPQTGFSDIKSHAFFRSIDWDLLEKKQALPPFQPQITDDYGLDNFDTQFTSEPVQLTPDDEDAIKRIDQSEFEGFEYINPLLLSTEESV

Row | Structure (SMILES) | IC50 [µM]
47 | O=C(N[C@@H]1CNCCCC1OC(=O)c1cc(O)c(C(=O)c2c(O)cccc2C(=O)O)c(O)c1)c1ccc(O)cc1 (mixture of isomers) | 3.5
48 | CN1C2CCC1C(NC(=O)c1ccc(O)cc1)C(OC(=O)c1cc(O)c(C(=O)c3c(O)cccc3C(=O)O)c(O)c1)C2 (stereo in doubt; anti) | > 50
49 | CN1C2CCC1C(NC(=O)c1ccc(O)cc1)C(OC(=O)c1cc(O)c(C(=O)c3c(O)cccc3C(=O)O)c(O)c1)C2 (stereo in doubt; syn) | > 50
